Results from US20130058903A1, “Stem-Cell Material and Method of Use” (priority 2009, published 2013).

Key:
STAT3 = experiment: Western blot of STAT3 phosphorylation in C2C12 myocytes; type: cell-based; settings: C2C12 pretreated 2 hours, then MSC-CM for 30 min
Procedure: FIG. 8: Trophic actions of MSCs stimulate JAK/STAT3 signaling in cultured skeletal myocytes. C2C12 myocytes were plated in 6-well plates (10^5 cells per well). After overnight plating, cells were exposed to the indicated conditioned medium. A: Western blot assays of C2C12 cells exposed to MSC-CM for 5 min, 30 min, 6 hr, and 24 hr. B: In situ immunostaining of control medium- and MSC-CM-treated C2C12 cells (30 min incubation) using a p-STAT3 antibody (red) and β-actin antibody (green). Alexa647- and FITC-conjugated secondary antibodies were used. Nuclei were stained with DAPI. C: Western blot assays comparing the effects of porcine MSC-CM, a human embryonic kidney cell line (HEK293) CM, IL-6, IL-11, and LIF on STAT3 phosphorylation in C2C12 myocytes 30 min after treatment. Fifty ng/ml recombinant proteins were used. D: CT for human MSC IL-6-type cytokines. The CT for the house-keeping gene β2-microglobulin and GAPDH are ˜17 and ˜15, respectively.
FIG. 9: gp130/STAT3 signaling stimulates growth factor expression in cultured skeletal myocytes. C2C12 myocytes were treated with […] of a gp130 antibody (R&D Systems; #AF468) or control IgG for one hour at 37° C. The IgG isotype antibody was used as a negative control. Cells were then briefly rinsed and treated with MSC-CM for 30 min to assess STAT3 activation or 3 days for growth factor production. […]

JAK/STAT3 signaling = experiment: Extracardiac MSC therapy with WP1066 (echocardiography, ELISA); type: in vivo, hamster
Procedure: FIG. 14: WP1066 inhibits JAK/STAT3 signaling and abrogates MSC-mediated cardiac repair. […] Cells were pretreated with WP1066 at the indicated dosages for 2 hours, following which cells were stimulated with MSC-CM for 30 min. Western blot assays were performed to determine STAT3 activation. B: The extracardiac MSC therapy was carried out as described previously (54). The four treatment groups (n=5 per group) were: WP1066, drug vehicle (PEG), MSC plus WP1066, and MSC plus drug vehicle (MSC+PEG). qRT-PCR assays of myocardial ANP and BNP expression (n=4 per group) after one month were presented. ANOVA was performed to assess statistical significance. *P<0.05 vs. PEG.
FIG. 15: WP1066 blocks MSC-mediated improvement in cardiac function. Cardiac function was determined by blind-folded echocardiography after MSC administration. A: Representative M-mode recording for the four animal groups at 4 weeks. B: LVEF at 2 and 4 weeks after MSCs. ANOVA was performed to assess statistical significance. *P<0.05 vs. PEG; †P<0.05 vs. WP1066; #P<0.05 vs. pre-injection.
FIG. 16: Inhibition of JAK/STAT3 signaling abolishes MSC-induced tissue growth factor levels. Soluble fractions of total hamstring extracts (panel A) and plasma samples (panel B) were assayed using rodent-specific HGF and VEGF ELISA kits (n=4 per group). Tissue growth factor concentrations were expressed as ng per mg soluble proteins. ANOVA was performed to assess statistical significance. *P<0.05 vs. PEG; †P<0.05 vs. WP1066; #P<0.05 vs. MSC+WP1066.

C[C@H](NC(=O)/C(C#N)=C/c1cccc(Br)n1)c1ccccc1 [WP1066]
STAT3 phosphorylation (STAT3): Inhibitory effect | MSC-mediated improvement in cardiac function (LVEF) (JAK/STAT3 signaling; 2 and 4 weeks after MSCs): blocks | MSC-induced tissue growth factor levels (HGF, VEGF) (JAK/STAT3 signaling; hamstring extracts and plasma): abolishes | MSC-mediated cardiac repair (JAK/STAT3 signaling; myocardial ANP and BNP expression after one month): abrogates
